What was measured:
[1] = xn = mol fraction of the nth substance listed; conditions: 101 kPa, Liquid; for speed of sound: Sing-around technique in a fixed-path interferometer
[2] = refractive index (Na D-line) (dimensionless); xn = mol fraction of the nth substance listed; conditions: 101 kPa, Liquid

CCCCC(CC)CO (stereo not given) [2-ethyl-1-hexanol] + Clc1ccccc1
Conditions | mass density, [1] [kg/m3] | refractive index, [2] | speed of sound, [1] [m/s] | viscosity, [1] [mPa·s]
298.15 K, x2 = 0 | 829.07 | 1.4287 | 1319 | 8.418
298.15 K, x2 = 0.0779 | 838.66 | 1.435 | 1313 | 6.736
298.15 K, x2 = 0.1381 | 847.37 | 1.44 | 1308 | 5.641
298.15 K, x2 = 0.1974 | 857.02 | 1.4453 | 1304 | 4.684
298.15 K, x2 = 0.2716 | 870.89 | 1.4523 | 1298 | 3.718
298.15 K, x2 = 0.3399 | 885.34 | 1.4591 | 1292 | 2.996
298.15 K, x2 = 0.4119 | 902.38 | 1.4666 | 1287 | 2.38
298.15 K, x2 = 0.4766 | 919.17 | 1.4734 | 1282 | 1.969
298.15 K, x2 = 0.5461 | 938.46 | 1.4807 | 1277 | 1.628
298.15 K, x2 = 0.6124 | 958.72 | 1.4879 | 1272 | 1.381
298.15 K, x2 = 0.6892 | 983.65 | 1.4961 | 1268 | 1.197
298.15 K, x2 = 0.758 | 1007.82 | 1.5034 | 1265 | 1.06
298.15 K, x2 = 0.8189 | 1029.88 | 1.5095 | 1264 | 0.969
298.15 K, x2 = 0.8888 | 1056.63 | 1.5161 | 1263 | 0.893
298.15 K, x2 = 0.9533 | 1081.91 | 1.521 | 1265 | 0.821
303.15 K, x2 = 0 | 825.39 | 1.4266 | 1301 | 7.144
303.15 K, x2 = 0.0779 | 834.41 | 1.4332 | 1295 | 5.817
303.15 K, x2 = 0.1381 | 842.5 | 1.4382 | 1291 | 4.906
303.15 K, x2 = 0.1974 | 852.03 | 1.4437 | 1286 | 4.121
303.15 K, x2 = 0.2716 | 865.78 | 1.4509 | 1280 | 3.268
303.15 K, x2 = 0.3399 | 880.07 | 1.4577 | 1275 | 2.671
303.15 K, x2 = 0.4119 | 897.12 | 1.4651 | 1269 | 2.147
303.15 K, x2 = 0.4766 | 914.02 | 1.472 | 1264 | 1.785
303.15 K, x2 = 0.5461 | 933.51 | 1.4793 | 1259 | 1.455
303.15 K, x2 = 0.6124 | 953.51 | 1.4863 | 1254 | 1.253
303.15 K, x2 = 0.6892 | 978.28 | 1.4943 | 1250 | 1.057
303.15 K, x2 = 0.758 | 1002.29 | 1.5015 | 1247 | 0.968
303.15 K, x2 = 0.8189 | 1024.42 | 1.5076 | 1246 | 0.881
303.15 K, x2 = 0.8888 | 1050.99 | 1.514 | 1245 | 0.81
303.15 K, x2 = 0.9533 | 1076.27 | 1.5186 | 1247 | 0.764
308.15 K, x2 = 0 | 821.68 | 1.4245 | 1283 | 6.09
308.15 K, x2 = 0.0779 | 829.62 | 1.4308 | 1277 | 4.854
308.15 K, x2 = 0.1381 | 837.63 | 1.4362 | 1273 | 4.032
308.15 K, x2 = 0.1974 | 846.84 | 1.4416 | 1268 | 3.363
308.15 K, x2 = 0.2716 | 860.76 | 1.4491 | 1263 | 2.689
308.15 K, x2 = 0.3399 | 875.1 | 1.4561 | 1257 | 2.171
308.15 K, x2 = 0.4119 | 892.15 | 1.4637 | 1252 | 1.749
308.15 K, x2 = 0.4766 | 908.93 | 1.4706 | 1247 | 1.45
308.15 K, x2 = 0.5461 | 928.26 | 1.4778 | 1242 | 1.221
308.15 K, x2 = 0.6124 | 948.46 | 1.4849 | 1237 | 1.068
308.15 K, x2 = 0.6892 | 973.49 | 1.4929 | 1233 | 0.96
308.15 K, x2 = 0.758 | 996.87 | 1.4998 | 1230 | 0.879
308.15 K, x2 = 0.8189 | 1018.95 | 1.5056 | 1228 | 0.824
308.15 K, x2 = 0.8888 | 1045.23 | 1.5116 | 1228 | 0.774
308.15 K, x2 = 0.9533 | 1070.96 | 1.5161 | 1229 | 0.719

From the NIST ThermoML archive (doi:10.1007/s10765-013-1526-8)
